Experimental data taken from paper PMC3818998 (Microbial Biotechnology, 2011).
Like-named read-outs stand apart in the source and are kept apart here.

T1: GalR (Bifidobacterium breve UCC2003, UniProt F9Y1U7 1-351)
T1 sequence: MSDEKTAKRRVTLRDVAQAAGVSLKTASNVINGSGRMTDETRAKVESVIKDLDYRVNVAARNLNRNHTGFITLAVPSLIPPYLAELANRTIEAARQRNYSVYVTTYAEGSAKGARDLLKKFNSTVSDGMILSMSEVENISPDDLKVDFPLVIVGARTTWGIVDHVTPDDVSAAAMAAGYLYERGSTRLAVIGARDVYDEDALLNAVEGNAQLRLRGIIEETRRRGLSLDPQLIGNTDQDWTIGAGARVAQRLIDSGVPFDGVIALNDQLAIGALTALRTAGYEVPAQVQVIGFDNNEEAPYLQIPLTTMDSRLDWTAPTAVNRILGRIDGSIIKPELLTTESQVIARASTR

B1: galCIR2 (dsDNA)
DNA 1: TGACAAATTGGTACACAGGTGTATCATCTTAGGTA
DNA 2: TACCTAAGATGATACACCTGTGTACCAATTTGTCA
B2: galCIR1 (dsDNA)
DNA 1: TTAGGTATTGGTACACGGGTGTACCAAAGAAAACA
DNA 2: TGTTTTCTTTGGTACACCCGTGTACCAATACCTAA

What was measured:
[1] = target: GalG (Bifidobacterium breve, UniProt F9Y1U6); assay: HPTLC of hydrolysis products; assay type: biochemical
[2] = target: T1, GalR; assay: EMSA

Molecule | binding result [2] | other results
OC[C@H]1O[C@@H](O[C@@H]2[C@H](O)[C@@H](O)C(O)O[C@@H]2CO)[C@H](O)[C@@H](O)[C@H]1O (stereo partly shown) [galactobiose] |  | HPTLC of hydrolysis products [1]: The hydrolysis products of galactobiose and lactose following incubation with GalG
OC[C@H]1O[C@@H](O[C@@H]2[C@H](O)[C@@H](O)[C@H](O[C@@H]3[C@H](O)[C@@H](O)C(O)O[C@@H]3CO)O[C@@H]2CO)[C@H](O)[C@@H](O)[C@H]1O (stereo partly shown) [galactotriose] |  | HPTLC of hydrolysis products ([1]; galactotriose generated in situ from potato galactan by GalA or GalAT): Upon addition of GalG to the reaction mix the galactotriose is further hydrolysed
B1 | binds | 
B2 | binds | 
